Reference: patent US9512120B2, “Microbicidally active imidazopyridine derivatives” (Syngenta Participations AG, priority 2013, dated 2016)

Tests used:
[1] = test system: Puccinia recondita f. sp. Tritici; assay: Puccinia recondita f. sp. tritici / wheat / leaf disc preventative (brown rust); assay type: in vivo; conditions: foliar, wheat leaf segments cv Kanzler, inoculated 1 day after application, assessed 7-9 days after application, read-out: control of Puccinia recondita f. sp. Tritici (percent disease control compared to untreated)
Procedure: Puccinia recondita f. Sp. Tritici/Wheat/Leaf Disc Preventative (Brown Rust): Wheat leaf segments cultivated variety (cv) Kanzler were placed on agar in 24-well plates and sprayed with formulated test compound diluted in water at an application rate of 200 ppm. The leaf disks were inoculated with a spore suspension of the fungus 1 day after application. The inoculated leaf segments were incubated at 19° C. and 75% relative humidity under a light regime of 12/12 h (light/dark) in a climate cabinet and the activity of a compound was assessed as percent disease control compared to untreated when an appropriate level of disease damage appears in untreated check leaf segments (7-9 days after application).

Pyrenophora teres = Pyrenophora teres / barley / leaf disc preventative (net blotch); assay type: in vivo; conditions: foliar, barley leaf segments cv Hasso, inoculated two days after application, assessed 5-7 days after application, read-out: control of Pyrenophora teres (disease control compared to untreated)
Procedure: Pyrenophora Teres/Barley/Leaf Disc Preventative (Net Blotch): Barley leaf segments cv Hasso are placed on agar in a 24-well plate and sprayed with formulated test compound diluted in water at an application rate of 200 ppm. The leaf segments are inoculated with a spore suspension of the fungus two days after application of the test solution. The inoculated leaf segments are incubated at 20° C. and 65% relative humidity under a light regime of 12/12 h (light/dark) in a climate cabinet and the activity of a compound is assessed as disease control compared to untreated when an appropriate level of disease damage appears in untreated check leaf segments (5-7 days after application).

[2] = test system: Botryotinia fuckeliana (Botrytis cinerea); assay: Botryotinia fuckeliana (Botrytis cinerea) / liquid culture (gray mould); assay type: cell-based; conditions: Vogels broth, 24° C., 3-4 days after application, read-out: control of Botryotinia fuckeliana (inhibition of growth, photometric)
Procedure: (§1) Botryotinia Fuckeliana (Botrytis cinerea)/Liquid Culture (Gray Mould): Conidia of the fungus from cryogenic storage were directly mixed into nutrient broth (Vogels broth). After placing a DMSO solution of test compound into a 96-well microtiter plate at an application rate of 200 ppm, the nutrient broth containing the fungal spores was added. The test plates were incubated at 24° C. and the inhibition of growth was determined photometrically 3-4 days after application.

[3] = test system: Glomerella lagenarium (Colletotrichum lagenarium); assay: Glomerella lagenarium (Colletotrichum lagenarium) / liquid culture (anthracnose); assay type: cell-based; conditions: Colletotrichum orbiculare, PDB, 24° C., 3-4 days after application, read-out: control of Glomerella lagenarium (inhibition of growth, photometric)
Procedure: as §1, with “Glomerella lagenarium (Colletotrichum lagenarium)/Liquid” for “Botryotinia Fuckeliana (Botrytis cinerea)/Liquid”, “(Anthracnose):” for “(Gray Mould):”, “(PDB potato dextrose” for “(Vogels”, “is measured” for “was determined”

[4] = test system: Mycosphaerella graminicola (Septoria tritici); assay: Mycosphaerella graminicola (Septoria tritici) / liquid culture (Septoria blotch); assay type: cell-based; conditions: Zymoseptoria tritici, PDB, 24° C., 4-5 days after application, read-out: control of Mycosphaerella graminicola (inhibition of growth, photometric)
Procedure: as §1, with “Mycosphaerella graminicola (Septoria tritici)/Liquid” for “Botryotinia Fuckeliana (Botrytis cinerea)/Liquid”, “(Septoria Blotch):” for “(Gray Mould):”, “(PDB potato dextrose” for “(Vogels”, “4-5” for “3-4”

[5] = test system: Thanatephorus cucumeris (Rhizoctonia solani); assay: Thanatephorus cucumeris (Rhizoctonia solani) / liquid culture (foot rot, damping-off); assay type: cell-based; conditions: PDB, 24° C., 3-4 days after application, read-out: control of Thanatephorus cucumeris (inhibition of growth, photometric)
Procedure: Thanatephorus cucumeris (Rhizoctonia solani)/Liquid Culture (Foot Rot, Damping-Off): Mycelia fragments of a newly grown liquid culture of the fungus are directly mixed into nutrient broth (PDB potato dextrose broth). After placing a DMSO solution of the test compounds into a 96-well microtiter plate at an application rate of 200 ppm, the nutrient broth containing the fungal material was added. The test plates were incubated at 24° C. and the inhibition of growth was determined photometrically 3-4 days after application.

Sclerotinia sclerotiorum = Sclerotinia sclerotiorum liquid culture (cottony rot / white mold); assay type: cell-based; conditions: PDB, 24° C., 3-4 days after application, read-out: control of Sclerotinia sclerotiorum (inhibition of growth, photometric)
Procedure: Sclerotinia sclerotiorum (Cottony Rot/White Mold): Mycelia fragments of a newly grown liquid culture of the fungus were directly mixed into nutrient broth (PDB potato dextrose broth). After placing a (DMSO) solution of test compound into a microtiter plate (96-well format) the nutrient broth containing the fungal material was added. The test plates are incubated at 24° C. and the inhibition of growth was determined photometrically 3-4 days after application.

[6] = test system: Phaeosphaeria nodorum (Septoria nodorum); assay: Phaeosphaeria nodorum (Septoria nodorum) / wheat / leaf disc preventative (glume blotch); assay type: in vivo; conditions: Parastagonospora nodorum, foliar, wheat leaf segments cv Kanzler, inoculated 2 days after application, assessed 5-7 days after application, read-out: control of Phaeosphaeria nodorum (percent disease control compared to untreated)
Procedure: Phaeosphaeria nodorum (Septoria nodorum)/Wheat/Leaf Disc Preventative (Glume Blotch): Wheat leaf segments cv Kanzler were placed on agar in a 24-well plate and sprayed with formulated test compound diluted in water at an application rate of 200 ppm. The leaf disks are inoculated with a spore suspension of the fungus 2 days after application. The inoculated test leaf disks are incubated at 20° C. and 75% relative humidity under a light regime of 12/12 h (light/dark) in a climate cabinet and the activity of a compound is assessed as percent disease control compared to untreated when an appropriate level of disease damage appears in untreated check leaf disks (5-7 days after application).

Gaeumannomyces graminis = Gaeumannomyces graminis / liquid culture (take-all of cereals); assay type: cell-based; conditions: PDB, 24° C., 4-5 days after application, read-out: control of Gaeumannomyces graminis (inhibition of growth, photometric)
Procedure: (§2) Gaeumannomyces graminis/Liquid Culture (Take-all of Cereals): Mycelial fragments of the fungus from cryogenic storage were directly mixed into nutrient broth (PDB potato dextrose broth). After placing a DMSO solution of test compound into a 96-well microtiter plate at an application rate of 200 ppm, the nutrient broth Cp.33, containing the fungal spores is added. The test plates were incubated at 24° C. and the inhibition of growth was determined photometrically 4-5 days after application.

[7] = test system: Monographella nivalis (Microdochium nivale); assay: Monographella nivalis (Microdochium nivale) / liquid culture (foot rot cereals); assay type: cell-based; conditions: PDB, 24° C., 4-5 days after application, read-out: control of Monographella nivalis (inhibition of growth, photometric)
Procedure: as §2, with “Monographella nivalis (Microdochium nivale)/Liquid” for “Gaeumannomyces graminis/Liquid”, “(Foot Rot” for “(Take-all of”, “Conidia” for “Mycelial fragments”, “broth” for “broth Cp.33,”, “was” for “is”

CCn1c(-n2ncnc2N)nc2cncc(-c3ccc(Cl)cc3)c21 [Compound 35, 2-[7-(4-chlorophenyl)-1-ethylimidazo[4,5-c]pyridin-2-yl]-1,2,4-triazol-3-amine]
≥ 80%: pest or weed control at 200 ppm [1] | pest or weed control at 200 ppm (Pyrenophora teres) | inhibition at 20 ppm [2] | inhibition at 20 ppm [3] | inhibition at 20 ppm [4] | inhibition at 20 ppm [5] | inhibition at 20 ppm (Sclerotinia sclerotiorum)

CCn1c(-n2ncnc2N)nc2cncc(-c3cc(F)cc(F)c3)c21 [Compound 37, 2-[7-(3,5-difluorophenyl)-1-ethylimidazo[4,5-c]pyridin-2-yl]-1,2,4-triazol-3-amine]
≥ 80%: pest or weed control at 200 ppm [6] | pest or weed control at 200 ppm (Pyrenophora teres) | inhibition at 20 ppm [2] | inhibition at 20 ppm [3] | inhibition at 20 ppm [4] | inhibition at 20 ppm [5]

CCn1c(-n2ncnc2N)nc2cncc(-c3ccc(C)c(F)c3)c21 [Compound 41, 2-[1-ethyl-7-(3-fluoro-4-methylphenyl)imidazo[4,5-c]pyridin-2-yl]-1,2,4-triazol-3-amine]
≥ 80%: pest or weed control at 200 ppm [1] | pest or weed control at 200 ppm (Pyrenophora teres) | inhibition at 20 ppm [2] | inhibition at 20 ppm [4] | inhibition at 20 ppm [5] | inhibition at 20 ppm (Sclerotinia sclerotiorum)

CCn1c(-n2ncnc2N)nc2cncc(-c3cc4ccccc4nc3F)c21 [Compound 66, 2-[1-ethyl-7-(2-fluoroquinolin-3-yl)imidazo[4,5-c]pyridin-2-yl]-1,2,4-triazol-3-amine]
≥ 80%: pest or weed control at 200 ppm [6] | pest or weed control at 200 ppm (Pyrenophora teres) | inhibition at 20 ppm [2] | inhibition at 20 ppm [4] | inhibition at 20 ppm (Gaeumannomyces graminis) | inhibition at 20 ppm [5] | inhibition at 20 ppm (Sclerotinia sclerotiorum)

CCn1c(-n2ncnc2N)nc2cncc(-c3cccc(OC)c3OC)c21 [Compound 83, 2-[7-(2,3-dimethoxyphenyl)-1-ethylimidazo[4,5-c]pyridin-2-yl]-1,2,4-triazol-3-amine]
≥ 80%: pest or weed control at 200 ppm [1] | pest or weed control at 200 ppm [6] | pest or weed control at 200 ppm (Pyrenophora teres) | inhibition at 20 ppm [2] | inhibition at 20 ppm [4] | inhibition at 20 ppm (Gaeumannomyces graminis) | inhibition at 20 ppm [5]

CCn1c(-n2ncnc2N)nc2cncc(-c3cc(C(F)(F)F)ccc3F)c21 [Compound 84, 2-[1-ethyl-7-[2-fluoro-5-(trifluoromethyl)phenyl]imidazo[4,5-c]pyridin-2-yl]-1,2,4-triazol-3-amine]
≥ 80%: pest or weed control at 200 ppm (Pyrenophora teres) | inhibition at 20 ppm [2] | inhibition at 20 ppm [4] | inhibition at 20 ppm (Gaeumannomyces graminis) | inhibition at 20 ppm [5] | inhibition at 20 ppm (Sclerotinia sclerotiorum)

CCn1c(-n2ncnc2N)nc2cncc(-c3cc(Cl)ccc3F)c21 [Compound 91, 2-[7-(5-chloro-2-fluorophenyl)-1-ethylimidazo[4,5-c]pyridin-2-yl]-1,2,4-triazol-3-amine]
≥ 80%: pest or weed control at 200 ppm [1] | pest or weed control at 200 ppm (Pyrenophora teres) | inhibition at 20 ppm [2] | inhibition at 20 ppm [3] | inhibition at 20 ppm [4] | inhibition at 20 ppm (Gaeumannomyces graminis) | inhibition at 20 ppm [5] | inhibition at 20 ppm [7] | inhibition at 20 ppm (Sclerotinia sclerotiorum)

CCn1c(-n2ncnc2N)nc2cncc(-c3ccc(C(F)(F)F)cc3Cl)c21 [Compound 97]
≥ 80%: pest or weed control at 200 ppm [1] | pest or weed control at 200 ppm (Pyrenophora teres) | inhibition at 20 ppm [2] | inhibition at 20 ppm [3] | inhibition at 20 ppm [4] | inhibition at 20 ppm (Gaeumannomyces graminis) | inhibition at 20 ppm [5] | inhibition at 20 ppm [7] | inhibition at 20 ppm (Sclerotinia sclerotiorum)

CCCn1c(-n2ncnc2N)nc2cncc(-c3ccccc3F)c21 [Compound 121, 2-[7-(2-fluorophenyl)-1-propylimidazo[4,5-c]pyridin-2-yl]-1,2,4-triazol-3-amine]
≥ 80%: pest or weed control at 200 ppm [1] | pest or weed control at 200 ppm [6] | pest or weed control at 200 ppm (Pyrenophora teres) | inhibition at 20 ppm [2] | inhibition at 20 ppm [3] | inhibition at 20 ppm [4] | inhibition at 20 ppm (Gaeumannomyces graminis) | inhibition at 20 ppm [5]

CCCON=C(C)c1cncc2nc(-n3ncnc3N)n(CC)c12 [Compound 143]
≥ 80%: pest or weed control at 200 ppm [1] | pest or weed control at 200 ppm [6] | pest or weed control at 200 ppm (Pyrenophora teres) | inhibition at 20 ppm [2] | inhibition at 20 ppm [3] | inhibition at 20 ppm [4] | inhibition at 20 ppm [5] | inhibition at 20 ppm (Sclerotinia sclerotiorum)

CCn1c(-n2ncnc2N)nc2cncc(/C(C)=N/OC/C=C/Cl)c21 [Compound 150]
≥ 80%: pest or weed control at 200 ppm [1] | pest or weed control at 200 ppm (Pyrenophora teres) | inhibition at 20 ppm [2] | inhibition at 20 ppm [3] | inhibition at 20 ppm [4] | inhibition at 20 ppm [5] | inhibition at 20 ppm [7] | inhibition at 20 ppm (Sclerotinia sclerotiorum)

CCCn1c(-n2ncnc2N)nc2cncc(/C(C)=N/OC/C=C\Cl)c21 [Compound 181]
≥ 80%: pest or weed control at 200 ppm [1] | pest or weed control at 200 ppm (Pyrenophora teres) | inhibition at 20 ppm [2] | inhibition at 20 ppm [4] | inhibition at 20 ppm (Gaeumannomyces graminis) | inhibition at 20 ppm [5] | inhibition at 20 ppm [7] | inhibition at 20 ppm (Sclerotinia sclerotiorum)

CCCn1c(-n2ncnc2N)nc2cncc(/C(C)=N\OCC=C(C)C)c21 [Compound 188]
≥ 80%: pest or weed control at 200 ppm [1] | pest or weed control at 200 ppm [6] | pest or weed control at 200 ppm (Pyrenophora teres) | inhibition at 20 ppm [2] | inhibition at 20 ppm [4] | inhibition at 20 ppm (Gaeumannomyces graminis) | inhibition at 20 ppm [5] | inhibition at 20 ppm [7] | inhibition at 20 ppm (Sclerotinia sclerotiorum)
